Assay results reported in publication PMC8667930, “Novel sulphonamide-bearing methoxyquinazolinone derivatives as anticancer and apoptosis inducers: synthesis, biological evaluation and in silico studies” (Journal of Enzyme Inhibition and Medicinal Chemistry, 2021).

Assays:
[1] = test system: MCF-7 cells (human breast cancer cell line); assay: MTT cytotoxicity assay, MCF-7; type: cell-based; details: mean ± SD (n = 3), NA = no activity; for IC50: Homo sapiens, MCF7, 48 h treatment; for IC50, MCF-7: 48 h treatment
Experimental: (§1) The MTT assay was performed to test the antiproliferative activity of the synthesised compounds, as per the methodology described by Alqahtani and co-workers[35]. Briefly, A549, HepG2, LoVo, MCF-7 and HUVEC cell lines were seeded in 96-cell culture plates (5 × 10^4 per well) and allowed 24 h for adherence. The cells were then treated with different concentrations of each compound, and 5-fluorouracil was used as a positive control. Following the treatment period (48 h), 10 µL of MTT solution (5 mg/mL) was added to each well and the plates were incubated at 37 °C for 2–4 h. Isopropanol (100 µL) acidified with 0.1 N HCl was added to solubilise the formazan products and the plate was kept on a shaker for 10 min. The optical density of each mixture was measured at 570 nm using an enzyme-linked immunosorbent assay plate reader (ELISA plate reader, Bio-Tek, USA). The concentrations of tested compounds required to inhibit cell growth by 50% (IC50) were calculated using a dose-response curve. Cell survival was calculated using the following equation: Cell survival (%)=(OD of treated sample)/(OD of untreated sample)×100

[2] = test system: HUVEC (normal human umbilical vein endothelial cells); assay: MTT cytotoxicity assay, HUVEC; type: cell-based; details: 48 h treatment, mean ± SD (n = 3), NA = no activity; for IC50: Homo sapiens, HUVEC
Experimental: as §1

[3] = test system: HepG2 cells (liver cancer); assay: MTT cytotoxicity assay, HepG2; type: cell-based; details: mean ± SD (n = 3), NA = no activity; for IC50: Homo sapiens, HepG2, 48 h treatment; for IC50, HepG2: 48 h treatment
Experimental: as §1

[4] = test system: A549 cells (non-small cell lung carcinoma); assay: MTT cytotoxicity assay, A549; type: cell-based; details: mean ± SD (n = 3), NA = no activity; for IC50: Homo sapiens, A549, 48 h treatment; for IC50, A549: 48 h treatment
Experimental: as §1

[5] = test system: LoVo cells (colon cancer); assay: MTT cytotoxicity assay, LoVo; type: cell-based; details: 48 h treatment, mean ± SD (n = 3), NA = no activity; for IC50: Homo sapiens, LoVo
Experimental: as §1

Row | SMILES | melting point | IC50 [1] | IC50 [2] | IC50 [3] | IC50 [4] | IC50 [5] | IC50, MCF-7 [1] | IC50, HUVEC [2] | IC50, HepG2 [3] | IC50, A549 [4] | IC50, LoVo [5]
1 | O=c1[nH]cc(F)c(=O)[nH]1 [5-Flurouracil, 5-Fluorouracil, reference compound] |  | 95.63 ± 0.3 µM | 167 ± 0.2 µM | 132.4 ± 0.6 µM | 98.86 ± 0.01 µM | 90.71 ± 0.5 µM |  |  |  |  | 
2 | COc1cccc2c(=O)n(-c3ccc(S(N)(=O)=O)cc3)c(SCC(=O)Nc3ccccc3)nc12 [Compound 5, 2-((8-Methoxy-4-oxo-3–(4-sulphamoylphenyl)-3,4-dihydroquinazolin-2-yl)thio)-N-phenyl-acetamide] | > 350 °C |  |  |  |  |  | no activity | no activity | no activity | no activity | no activity
3 | COc1cccc2c(=O)n(-c3ccc(S(N)(=O)=O)cc3)c(SCC(=O)Nc3cccc(C)c3)nc12 [Compound 7, 2-((8-Methoxy-4-oxo-3-(4-sulphamoylphenyl)-3,4-dihydroquinazolin-2-yl)thio)-N-(m-tolyl) acetamide] | > 350 °C | 27.7 ± 1.85 µM | 83.2 ± 0.9 µM | 39.7 ± 2.27 µM | 58.6 ± 1.52 µM | 30.1 ± 1.3 µM |  |  |  |  | 
4 | COc1cccc2c(=O)n(-c3ccc(S(N)(=O)=O)cc3)c(SCC(=O)Nc3ccc(C)cc3)nc12 [Compound 8, 2-((8-Methoxy-4-oxo-3-(4-sulphamoylphenyl)-3,4-dihydroquinazolin-2-yl)thio)-N-(p-tolyl) acetamide] | > 350 °C |  |  |  |  |  | no activity | no activity | no activity | no activity | no activity
5 | CCc1ccccc1NC(=O)CSc1nc2c(OC)cccc2c(=O)n1-c1ccc(S(N)(=O)=O)cc1 [Compound 9, N-(2-Ethylphenyl)-2-((8-methoxy-4-oxo-3-(4-sulphamoylphenyl)-3,4-dihydroquinazolin-2-yl)thio) acetamide] | 288 to 290 °C |  |  |  |  |  | no activity | no activity | no activity | no activity | no activity

Now from value to molecule, other results behind:

Row | melting point | SMILES | IC50 [1] | IC50 [2] | IC50 [3] | IC50 [4] | IC50 [5] | IC50, MCF-7 [1] | IC50, HUVEC [2] | IC50, HepG2 [3] | IC50, A549 [4] | IC50, LoVo [5]
6 | 280 to 282 °C | CCc1ccc(NC(=O)CSc2nc3c(OC)cccc3c(=O)n2-c2ccc(S(N)(=O)=O)cc2)cc1 [Compound 11, N-(4-Ethylphenyl)-2-((8-methoxy-4-oxo-3-(4-sulphamoylphenyl)-3,4-dihydroquinazolin-2-yl)thio) acetamide] | 29.4 ± 0.33 µM | 32.9 ± 1.4 µM | 42.7 ± 0.84 µM | 50.5 ± 1.73 µM |  |  |  |  |  | 
7 | 296 to 298 °C | COc1ccc(NC(=O)CSc2nc3c(OC)cccc3c(=O)n2-c2ccc(S(N)(=O)=O)cc2)cc1 [Compound 12, 2-((8-Methoxy-4-oxo-3-(4-sulphamoylphenyl)-3,4-dihydroquinazolin-2-yl)thio)-N-(p-methoxyphenyl) acetamide] |  |  |  |  |  | no activity | no activity | no activity | no activity | no activity
8 | 300 to 302 °C | CCOc1ccc(NC(=O)CSc2nc3c(OC)cccc3c(=O)n2-c2ccc(S(N)(=O)=O)cc2)cc1 [Compound 13, N-(p-Ethoxyphenyl)-2-((8-methoxy-4-oxo-3-(4-sulphamoylphenyl)-3,4-dihydroquin-azolin-2-yl)thio) acetamide] | 46.7 ± 1.23 µM | 39 ± 1.4 µM | 38 ± 0.47 µM | 61.9 ± 1.35 µM | 54.4 ± 2.07 µM |  |  |  |  | 
9 | 240 to 242 °C | COc1cc(NC(=O)CSc2nc3c(OC)cccc3c(=O)n2-c2ccc(S(N)(=O)=O)cc2)cc(OC)c1 [Compound 14, N-(3,5-Dimethoxyphenyl)-2-((8-methoxy-4-oxo-3-(4-sulphamoylphenyl)-3,4-dihydroq-uinazolin-2-yl)thio) acetamide] | 34.6 ± 1.15 µM | 62.6 ± 2.34 µM | 72.5 ± 1.06 µM | 68.34 ± 0.42 µM | 38.3 ± 0.65 µM |  |  |  |  | 
10 | 290 to 292 °C | COc1cc(NC(=O)CSc2nc3c(OC)cccc3c(=O)n2-c2ccc(S(N)(=O)=O)cc2)cc(OC)c1OC [Compound 15, 2-((8-Methoxy-4-oxo-3-(4-sulphamoylphenyl)-3,4-dihydroquinazolin-2-yl)thio)-N-(3,4,5-trimethoxyphenyl) acetamide] | 74 ± 2.16 µM | 79 ± 1.09 µM | 75.2 ± 0.96 µM | 75 ± 1.74 µM | 47.5 ± 4.08 µM |  |  |  |  | 
11 | > 350 °C | COc1cccc2c(=O)n(-c3ccc(S(N)(=O)=O)cc3)c(SCC(=O)Nc3ccc([N+](=O)[O-])cc3C)nc12 [Compound 16, 2-((8-Methoxy-4-oxo-3-(4-sulphamoylphenyl)-3,4-dihydroquinazolin-2-yl)thio)-N-(2-methyl-4-nitrophenyl) acetamide] | 39.9 ± 0.57 µM | 80.8 ± 1.13 µM | 75.7 ± 1.85 µM | 67.4 ± 1.45 µM | 40.98 ± 0.12 µM |  |  |  |  | 
12 | > 350 °C | COc1cccc2c(=O)n(-c3ccc(S(N)(=O)=O)cc3)c(SCC(=O)Nc3c(C)cccc3[N+](=O)[O-])nc12 [Compound 17, 2-((8-Methoxy-4-oxo-3-(4-sulphamoylphenyl)-3,4-dihydroquinazolin-2-yl)thio)-N-(2-methyl-6-nitrophenyl) acetamide] |  |  |  |  |  | no activity | no activity | no activity | no activity | no activity
